From PMC9986306, “Beyond CBD: Inhibitory effects of lesser studied phytocannabinoids on human voltage-gated sodium channels” (Frontiers in Physiology, 2023)
Marks after values point to notes of the source that are not given here.

How the values were obtained:
[1] = system: mouse models of neuropathic pain; set-up: method as in Abraham et al., 2020; Casey et al., 2022; conditions: ref Abraham et al., 2020, Casey et al., 2022; cited from earlier work
[2] = target: T1, human NaV1.1 channel (SCN1A, HEK293T cells) (Homo sapiens, UniProt P35498); set-up: method as in Milligan et al., 2022; conditions: NaV1.1 concentration-response of CBD; mean ± SEM; ref Milligan et al., 2022; cited from earlier work
T1 construct: expressed in transfected cells

[3] = target: T2, human NaV1.6 channel (SCN8A, CHO cells) (Homo sapiens, UniProt Q9UQD0); set-up: method as in Milligan et al., 2022; conditions: NaV1.6 concentration-response of CBD; mean ± SEM; ref Milligan et al., 2022; cited from earlier work
T2 construct: expressed in transfected cells

[4] = system: patients with Dravet syndrome (DS) and Lennox-Gastaut syndrome (LGS); set-up: method as in earlier work; conditions: Phase III clinical trials, ref Devinsky et al., 2017a, 2017b, 2018, 2020, 2021, Tang and Fang; cited from earlier work
[5] = target: T3, human NaV1.2 channel (SCN2A, HEK293T cells) (Homo sapiens, UniProt Q99250); set-up: method as in Milligan et al., 2022; conditions: NaV1.2 concentration-response of CBD; mean ± SEM; ref Milligan et al., 2022; cited from earlier work
T3 construct: expressed in transfected cells

[6] = target: T3, human NaV1.2 channel (SCN2A, HEK293T cells); test: Planar patch-clamp, biophysical properties (activation, SSFI, recovery from SSFI); type: cell-based; conditions: change vs vehicle DMSO at IC50 concentration (CBD 18.4 μM, CBGA 14.7 μM, CBDVA 60 μM)
Procedure: (§1) HEK293T cells stably expressing SCN1A or SCN2A and CHO cells stably expressing SCN8A or SCN9A were maintained as previously described ([Richards et al., 2018]; [Milligan et al., 2022]).
(§2) Patch-clamp recordings were made using a Patchliner® (Nanion Technologies, Munich, Germany) in the whole-cell configuration as previously described ([Richards et al., 2018]; [Milligan et al., 2022]). Briefly, cells were prepared in suspension at a density of 1 × 10^6-5 × 10^7 cells/mL. The external recording solution comprised (in mM): 140 NaCl, 4 KCl, 1 MgCl2, 2 CaCl2, 5 D-glucose, 10 HEPES, pH 7.4 with NaOH, ∼295 mOsm. The internal recording solution comprised (in mM): 50 CsCl, 60 CsF, 10 NaCl, 20 EGTA, 10 HEPES, pH 7.2 with CsOH, ∼285 mOsm. Medium single-hole planar NPC-16 chips with an average resistance of ∼2.5 MΩ were used. Chip and whole-cell capacitance were fully compensated, and 50% series resistance compensation applied. Recordings were acquired at 50 kHz with the low pass filter set to 10 kHz in PATCHMASTER (HEKA Instruments, NY, United States) and performed at 27°C. Offline analysis was performed using Microsoft Excel, MatLab R2019a (MathWorks) and GraphPad Prism 8 (Molecular Devices).
(§3) Voltage protocols were used, as previously described ([Richards et al., 2018]). Briefly, to study the voltage-dependence of activation, cells were held at −120 mV and depolarized to test potentials, in 5 mV increments, between −120 mV and +50 mV for 100 ms. To study steady-state fast inactivation, cells were held at conditioning pre-pulse potentials ranging from −120 mV to +30 mV in 5 mV increments from a holding potential of −120 mV and a test pulse at 5 mV for 20 ms. Recovery from fast inactivation was studied by pre-pulsing the cells to 0 mV from a holding potential of −120 mV for 50 ms, to fully inactivate channels. The voltage was then stepped back to the holding potential for variable interpulse intervals (ipi from 0 to 39 ms in 3 ms increments). To test channel availability, the voltage was stepped to 0 mV for 50 ms.
(§4) To examine the voltage-dependence of activation, normalized current-voltage (I-V) relationships were converted to conductance (G) using the following equation: G = I/(V−V r ) where Vr is the reversal potential for Na^+. The voltage-dependence of conductance and availability were normalized and fitted to a Boltzmann equation: G = 1/(1 + exp [(V−V 0.5)/a]), where a is the slope of the half-maximum, V is the potential of the given pulse, and V 0.5 is the potential for the half-maximal activation/inactivation. The time course of inactivation was fitted to a single exponential function I/Imax = I0+A*exp (-t-t0/τ)+C, where I0 is the non-inactivating component, Imax is the peak current, t is time, and A is the component for the time constant τ. Time constants were plotted against voltage and the data fitted with a decaying exponential equation Y = span*exp (−K*x)+plateau, where span is the starting point of the curve, K is the decay factor, plateau is the value the curve decays to, and x is time. To measure recovery from inactivation, normalized currents were plotted against ipi and data fitted with equation I/I max = 1-exp/(rc + x), where I max is maximal current; rc recovery rate constant; x is time. Peak current (I) was plotted as fractional recovery against the recovery period by normalizing to the maximum current (Imax) during the conditioning potentials.

[7] = target: T1, human NaV1.1 channel (SCN1A, HEK293T cells); test: as above; type: cell-based; conditions: change vs vehicle DMSO at IC50 concentration (CBD 18.5 μM, CBGA 13.6 μM, CBDVA 50 μM)
Procedure: as §1, §2, §3, §4

[8] = target: T4, human NaV1.7 channel (SCN9A, CHO cells) (Homo sapiens, UniProt Q15858); test: as above; type: cell-based; conditions: change vs vehicle DMSO at IC50 concentration (CBD 11.9 μM, CBGA 16.4 μM, CBDVA 60 μM)
T4 construct: expressed in transfected cells
Procedure: as §1, §2, §3, §4

[9] = target: T2, human NaV1.6 channel (SCN8A, CHO cells); test: as above; type: cell-based; conditions: change vs vehicle DMSO at IC50 concentration (CBD 16.6 μM, CBGA 12.0 μM, CBDVA 24.1 μM)
Procedure: as §1, §2, §3, §4

[10] = target: T4, human NaV1.7 channel (SCN9A, CHO cells); set-up: method as in Milligan et al., 2022; conditions: NaV1.7 concentration-response of CBD; mean ± SEM; ref Milligan et al., 2022; cited from earlier work

T2 sequence (Q9UQD0 whole entry): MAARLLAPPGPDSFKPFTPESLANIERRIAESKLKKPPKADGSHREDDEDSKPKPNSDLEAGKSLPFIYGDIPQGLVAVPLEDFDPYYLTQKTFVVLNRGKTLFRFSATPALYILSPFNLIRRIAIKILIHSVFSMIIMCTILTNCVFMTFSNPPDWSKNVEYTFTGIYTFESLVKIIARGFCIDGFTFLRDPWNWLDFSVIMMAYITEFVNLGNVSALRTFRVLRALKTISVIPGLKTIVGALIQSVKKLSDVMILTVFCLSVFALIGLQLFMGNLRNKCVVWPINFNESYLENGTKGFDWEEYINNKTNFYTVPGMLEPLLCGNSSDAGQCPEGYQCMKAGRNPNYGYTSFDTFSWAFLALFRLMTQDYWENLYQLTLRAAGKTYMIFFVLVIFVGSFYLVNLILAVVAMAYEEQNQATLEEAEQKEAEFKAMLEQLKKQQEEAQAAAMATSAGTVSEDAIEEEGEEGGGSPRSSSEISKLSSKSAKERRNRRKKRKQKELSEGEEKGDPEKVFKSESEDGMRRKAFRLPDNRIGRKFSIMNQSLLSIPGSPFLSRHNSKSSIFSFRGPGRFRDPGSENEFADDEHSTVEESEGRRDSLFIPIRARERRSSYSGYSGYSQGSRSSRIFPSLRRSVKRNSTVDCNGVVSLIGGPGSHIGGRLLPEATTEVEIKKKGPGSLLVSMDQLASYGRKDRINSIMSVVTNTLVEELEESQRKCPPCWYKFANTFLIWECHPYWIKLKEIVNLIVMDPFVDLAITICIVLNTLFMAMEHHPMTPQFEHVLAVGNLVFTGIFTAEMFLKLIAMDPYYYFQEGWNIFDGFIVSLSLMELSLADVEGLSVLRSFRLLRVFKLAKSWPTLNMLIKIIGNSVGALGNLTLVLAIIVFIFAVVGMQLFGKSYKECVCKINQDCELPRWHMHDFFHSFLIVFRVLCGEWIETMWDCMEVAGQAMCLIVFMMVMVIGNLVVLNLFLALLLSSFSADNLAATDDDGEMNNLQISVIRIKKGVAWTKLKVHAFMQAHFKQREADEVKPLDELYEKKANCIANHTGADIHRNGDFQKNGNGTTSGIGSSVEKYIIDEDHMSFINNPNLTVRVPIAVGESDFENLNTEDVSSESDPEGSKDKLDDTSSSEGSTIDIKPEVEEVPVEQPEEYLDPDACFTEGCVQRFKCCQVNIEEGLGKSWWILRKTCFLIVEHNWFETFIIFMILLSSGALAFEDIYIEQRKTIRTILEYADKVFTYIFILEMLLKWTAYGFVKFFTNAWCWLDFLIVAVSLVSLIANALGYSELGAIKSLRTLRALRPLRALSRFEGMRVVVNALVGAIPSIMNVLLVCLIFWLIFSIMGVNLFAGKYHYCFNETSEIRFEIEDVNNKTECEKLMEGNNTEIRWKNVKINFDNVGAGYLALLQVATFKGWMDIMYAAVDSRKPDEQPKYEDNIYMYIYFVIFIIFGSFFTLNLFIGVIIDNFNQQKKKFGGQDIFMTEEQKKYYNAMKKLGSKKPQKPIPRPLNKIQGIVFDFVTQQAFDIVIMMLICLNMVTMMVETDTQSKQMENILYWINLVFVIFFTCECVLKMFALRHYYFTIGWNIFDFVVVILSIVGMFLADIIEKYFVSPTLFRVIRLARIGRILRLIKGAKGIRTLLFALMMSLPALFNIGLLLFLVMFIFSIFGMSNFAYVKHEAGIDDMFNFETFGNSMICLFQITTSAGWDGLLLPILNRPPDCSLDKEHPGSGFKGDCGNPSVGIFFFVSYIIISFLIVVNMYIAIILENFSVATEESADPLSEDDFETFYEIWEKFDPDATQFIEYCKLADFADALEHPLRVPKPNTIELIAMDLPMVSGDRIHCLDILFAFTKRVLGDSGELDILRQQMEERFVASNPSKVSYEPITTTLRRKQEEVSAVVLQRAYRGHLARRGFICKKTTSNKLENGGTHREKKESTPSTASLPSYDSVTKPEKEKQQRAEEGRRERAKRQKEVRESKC
T3 sequence (Q99250 whole entry): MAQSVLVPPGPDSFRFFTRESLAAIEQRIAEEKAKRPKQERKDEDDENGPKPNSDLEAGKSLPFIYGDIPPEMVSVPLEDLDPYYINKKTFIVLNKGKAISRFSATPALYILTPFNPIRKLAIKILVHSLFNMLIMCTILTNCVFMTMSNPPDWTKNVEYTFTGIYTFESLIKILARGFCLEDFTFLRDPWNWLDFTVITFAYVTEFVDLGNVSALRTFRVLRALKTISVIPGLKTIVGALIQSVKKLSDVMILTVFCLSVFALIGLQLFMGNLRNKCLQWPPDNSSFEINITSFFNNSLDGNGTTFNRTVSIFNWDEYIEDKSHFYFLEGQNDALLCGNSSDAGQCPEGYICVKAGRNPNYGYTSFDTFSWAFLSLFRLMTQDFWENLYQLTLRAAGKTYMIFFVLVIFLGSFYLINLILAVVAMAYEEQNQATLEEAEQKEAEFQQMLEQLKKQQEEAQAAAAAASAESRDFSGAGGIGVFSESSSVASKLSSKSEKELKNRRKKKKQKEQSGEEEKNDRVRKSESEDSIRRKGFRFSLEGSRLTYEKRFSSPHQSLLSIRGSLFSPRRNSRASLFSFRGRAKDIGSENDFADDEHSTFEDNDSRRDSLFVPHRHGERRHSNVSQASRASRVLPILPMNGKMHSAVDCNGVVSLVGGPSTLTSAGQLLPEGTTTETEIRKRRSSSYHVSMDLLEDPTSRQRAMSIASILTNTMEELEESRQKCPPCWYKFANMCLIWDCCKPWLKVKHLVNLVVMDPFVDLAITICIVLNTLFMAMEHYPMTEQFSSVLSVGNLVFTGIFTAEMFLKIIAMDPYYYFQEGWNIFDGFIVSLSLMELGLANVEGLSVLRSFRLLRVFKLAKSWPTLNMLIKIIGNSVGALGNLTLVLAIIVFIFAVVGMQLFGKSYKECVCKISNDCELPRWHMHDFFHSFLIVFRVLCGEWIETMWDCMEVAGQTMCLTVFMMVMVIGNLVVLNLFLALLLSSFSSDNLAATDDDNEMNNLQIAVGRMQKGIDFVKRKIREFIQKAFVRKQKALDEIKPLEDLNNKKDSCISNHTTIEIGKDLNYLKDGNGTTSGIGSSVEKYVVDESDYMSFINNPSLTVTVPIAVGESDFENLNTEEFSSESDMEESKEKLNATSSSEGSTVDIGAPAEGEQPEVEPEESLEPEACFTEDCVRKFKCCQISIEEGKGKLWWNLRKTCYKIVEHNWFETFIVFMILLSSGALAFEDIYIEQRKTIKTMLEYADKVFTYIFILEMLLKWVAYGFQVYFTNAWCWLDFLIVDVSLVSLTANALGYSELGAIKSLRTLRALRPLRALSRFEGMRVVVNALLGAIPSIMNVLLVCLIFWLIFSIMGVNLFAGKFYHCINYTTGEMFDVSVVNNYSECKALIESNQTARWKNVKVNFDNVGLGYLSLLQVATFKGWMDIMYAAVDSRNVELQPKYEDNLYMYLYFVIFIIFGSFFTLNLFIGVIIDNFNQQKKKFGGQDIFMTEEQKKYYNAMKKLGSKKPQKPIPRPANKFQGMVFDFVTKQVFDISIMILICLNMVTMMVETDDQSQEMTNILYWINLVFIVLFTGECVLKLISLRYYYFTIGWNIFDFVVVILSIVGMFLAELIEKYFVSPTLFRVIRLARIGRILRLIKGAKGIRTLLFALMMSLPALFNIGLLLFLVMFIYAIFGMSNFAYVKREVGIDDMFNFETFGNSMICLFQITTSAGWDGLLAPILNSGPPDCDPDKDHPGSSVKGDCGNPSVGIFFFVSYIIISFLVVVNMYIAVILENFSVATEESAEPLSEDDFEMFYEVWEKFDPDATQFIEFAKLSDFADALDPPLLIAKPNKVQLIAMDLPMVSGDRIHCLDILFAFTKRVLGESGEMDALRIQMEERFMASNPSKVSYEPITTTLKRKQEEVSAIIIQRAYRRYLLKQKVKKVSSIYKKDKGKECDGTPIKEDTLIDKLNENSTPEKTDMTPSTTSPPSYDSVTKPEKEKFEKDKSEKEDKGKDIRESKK

C=C(C)[C@@H]1CCC(C)=C[C@H]1c1c(O)cc(CCCCC)cc1O [CBD, cannabidiol, reference compound]
Effect on allodynia [1]: reduced allodynia
Slope (Hill slope coefficient) [2]: 2.1 ± 0.8
Slope (Hill slope coefficient) [3]: 1.3 ± 0.4
Effect on seizures in patients [4]: reduced seizures
Slope (Hill slope coefficient) [5]: 1.4 ± 0.4
Inactivation △ V0.5 inact ([6]; SSFI): −4.2 ± 1.9 mV
Inactivation △ slope factor ([6]; SSFI): 0.1 ± 0.2
Activation △ Slope factor [6]: 1.0 ± 0.3*
Activation △ V0.5 act [6]: 3.3 ± 2.7 mV
Inactivation △ τinact SSFI at 5 mV [6]: 0.08 ± 0.07
Inactivation △ V0.5 inact ([7]; SSFI): −5.6 ± 1.1**** mV
Inactivation △ slope factor ([7]; SSFI): 0.5 ± 0.3
Activation △ Slope factor [7]: 0.7 ± 0.2**
Activation △ V0.5 act [7]: 0.3 ± 1.2 mV
Inactivation △ τinact SSFI at 5 mV [7]: 0.03 ± 0.02
Inactivation △ V0.5 inact ([8]; SSFI): −3.7 ± 1.2** mV
Inactivation △ slope factor ([8]; SSFI): 1.2 ± 0.3***
Activation △ Slope factor [8]: 1.9 ± 0.3****
Activation △ V0.5 act [8]: 5.7 ± 2.3* mV
Inactivation △ τinact SSFI at 5 mV [8]: 0.3 ± 0.1*
Inactivation △ V0.5 inact ([9]; SSFI): −5.3 ± 3.6 mV
Inactivation △ slope factor ([9]; SSFI): −0.3 ± 0.7
Activation △ Slope factor [9]: 0.2 ± 0.2
Activation △ V0.5 act [9]: −0.6 ± 1.1 mV
Inactivation △ τinact SSFI at 5 mV [9]: 0.03 ± 0.06
Slope (Hill slope coefficient) [10]: 3.1 ± 0.6
